We go through 1 substance from patent US11648310B2, “Combination of anti-FGFR4-antibody and bile acid sequestrant” (Daiichi Sankyo Europe GmbH, priority 2015, dated 2023).

Data set [1] deals with cynomolgus monkeys. Particulars: cynomolgus monkey, in vivo. The source says:
In order to find ort whether any toxic side effects of FGFR4 inhibition are due to elevated bile acid levels, the effect of co-administering agents which interfere with bile acid levels was examined. […] For reducing bile acid levels, the bile acid sequestrant colestyramine (Quantalan™) was used. Ursodeoxycholic acid (Ursofalk™) was used as a second compound for increasing the transport of bile acids out of the liver. Ursodeoxycholic acid is a hydrophilic bile acid that increases bile acid transporter expression and plasma membrane translocation in the liver, (palliative compounds 1 and 2).
The study design included four cynomolgus monkeys (two male, two female) per group. The animals were assigned to the following groups
Duration and frequency: three administrations at 7-day interval (i.e. day 0, day 7 and day 14). The first day of dosing was designated as day 0. […]
The test animals were examined for clinical signs, liver enzymes, bile acid levels and FGF19. FGF19 serum levels were determined using quantiquine human FGF19 ELISA from RND according to the manufacturer's instructions. RNA expression of cyno liver and ileum samples for Cyp7A1 (liver) and FGF19 (Ileum) were determined using the High-Capacity RNA-to-cDNA Kit (Applied Biosystems/Life Technologies) followed by subsequent quantitative real-time PCR. […]

For data set [2], the system named is cynomolgus monkeys. Particulars: cynomolgus monkey, in vivo. From the text: In order to find ort whether any toxic side effects of FGFR4 inhibition are due to elevated bile acid levels, the effect of co-administering agents which interfere with bile acid levels was examined. […] For reducing bile acid levels, the bile acid sequestrant colestyramine (Quantalan™) was used. Ursodeoxycholic acid (Ursofalk™) was used as a second compound for increasing the transport of bile acids out of the liver. Ursodeoxycholic acid is a hydrophilic bile acid that increases bile acid transporter expression and plasma membrane translocation in the liver, (palliative compounds 1 and 2). The study design included four cynomolgus monkeys (two male, two female) per group. The animals were assigned to the following groups [table] […] Duration and frequency: three administrations at 7-day interval (i.e. day 0, day 7 and day 14). The first day of dosing was designated as day 0. After the last administration, the animals were kept for a treatment-free period of at east 28 days. Method: intravenous injection (slow bolus) using a pump system and a microflex infusion set introduced into a vein after local disinfection with an aqueous solution of ethyl alcohol. After injection, the vein was flushed with sterile physiological saline. Volume administered: 9.52 mL/kg/day. Individual dose volumes were calculated using the latest body weight. Palliative Compounds and Vehicle Route: oral. Frequency: twice daily at 8 hours±1 hour apart. Duration: each day from day 0 to the last day of treatment-free period, i.e. at least 41 days of administrations. Method: naso-gastric intubation (animals are trained to this administration rotate five days before the start of treatment). […] Individual dose volumes were calculated using the latest body weight. […] FGF19 serum levels were determined using quantiquine human FGF19 ELISA from RND according to the manufacturer's instructions. RNA expression of cyno liver and ileum samples for Cyp7A1 (liver) and FGF19 (Ileum) were determined using the High-Capacity RNA-to-cDNA Kit (Applied Biosystems/Life Technologies) followed by subsequent quantitative real-time PCR.
The source holds these as a separate data set.

Turning to “colestyramine [Quantalan™, reference compound]”, the Histopathological changes entry in the data set on cynomolgus monkeys [1] is listed as “no histopathological changes”. Also, in the data set with cynomolgus monkeys [2], the Alanine aminotransferase activity entry is “within the normal range”, the Bile acid concentration result was “within the normal range” and the “Reversibility of the aspartate aminotransferase effect” value is recorded as “reversible”.
